Reference: patent US20260248819A1, “MULTI-COMPONENT PHARMACEUTICAL COMPOSITIONS AND KITS CONTAINING NITRIC OXIDE RELEASING COMPOUNDS AND METHODS OF USING SAME” (priority 2022, published 2026)

Columns and labels:
[1] = system: M. abscessus strain N0010; test: Checkerboard assay, MD3 combined with a second antibiotic (NTM); format: cell-based, Mycobacterium abscessus; conditions: aerobic
Description: (§1) The checkerboard method was performed as follows. MD3 and the second antibiotic were tested at four times (4×) their minimum inhibitory concentration (MIC) alone (see Table 3). Stock solutions of MD3 and the secondary antibiotics were prepared at 4× the final concentration (i.e., 16× the MIC; called the 4× stocks).
(§2) Bacterial cultures were prepared from frozen glycerol stocks stored at −80° C. by streaking on agar plates (see Table 4). Several well-isolated colonies were suspended in IX PBS, then diluted to 1×10^6 CFU/ml in liquid media. The cultures were diluted to 5×10^5 CFU/ml, when added to the antibiotic combinations in the checkerboard assay plate. Because colonies from strains N0010, N0046, and N0124 are difficult to suspend homogenously, they were first sub-cultured in 7H9 liquid media containing Middlebrook ADC supplement and 0.05% Tween-80, then incubated at 37° C. shaking for 3 days. This subculture was used to prepare the 1×10^6 CFU/ml culture.
(§3) To prepare the checkerboard assay plates, phosphate buffered saline (PBS) was added to wells BI through H8 of a 96-well plate. […]
(§4) The FICI was calculated for each well along the growth/no-growth border of the checkerboard assay plate. […]

[2] = system: M. abscessus strain N0046; test: as above; format: cell-based, Mycobacterium abscessus subsp. bolletii; conditions: aerobic
Description: as §1, §2, §3, §4

[3] = system: M. chimaera N0124; test: as above; format: cell-based, Mycobacterium chimaera; conditions: strain N0124, aerobic
Description: as §1, §2, §3, §4

[4] = system: M. massiliense N0130; test: as above; format: cell-based, Mycobacterium massiliense; conditions: strain N0130, aerobic
Description: as §1, §2
(§5) To prepare the checkerboard assay plates, phosphate buffered saline (PBS) was added to wells BI through H8 of a 96-well plate. Next, 200 μl of the 4× second antibiotic stock was added to the empty wells in A1 through A8 of a 96-well plate, then serially diluted 1:1 down the plate using a multichannel pipette, stopping at row G. The final 100 μl from row G was discarded. […] At this step, all wells contain 4× the target concentration of the second antibiotic. Next, 100 μl of the 4× MD3 stock solution was added to wells A1 through H1 and serially diluted 1:1 across the plate to column 7 using a multichannel pipette. The final 100 μl in […] was discarded. […] After this step, all wells contain 2× the target concentrations for both MD3 and the second antibiotic. The wells in column 9 contain media alone, serving as media controls. The wells in column 10 contain media and bacteria, serving as growth controls. Finally, 100 μl of 5×10^5 CFU/ml bacterial culture was added to each well.
The FICI was calculated for each well along the growth/no-growth border of the checkerboard assay plate. If the FICI of any well was greater than 4, antagonism was reported; otherwise, the lowest FICI value was reported. FICI values of ≤0.5 are considered synergistic, values of 0.51 to 1 are additive, and values of greater than 1 to 4 are indifferent. The rationale for this method of analysis is that, if any ratio of MD3:antibiotic is synergistic, then that combination has the potential for synergy, even if other ratios are not synergistic. […] If an experiment was repeated twice and the same classification observed (e.g., synergy observed in both replicates), then the average FICI was reported for that drug combination. […]

[5] = system: P. aeruginosa strain PAK (N0049); test: Checkerboard assay, MD3 combined with a second antibiotic; format: cell-based, Pseudomonas aeruginosa; conditions: for Lowest FICI, rep 1 / Lowest FICI, rep 2 / Lowest FICI, rep 3: antibiotic combined with MD3
Description: To quantify the combined effects of MD3 and a secondary antibiotic, a checkerboard assay was used, which is a two-dimensional, two-agent serial dilution that quantifies the effect of each drug alone and in combination. In patients with underlying pulmonary disease such as bronchiectasis, significant mucus in the lung results in bacterial infections that are primarily microaerobic (little oxygen) or anaerobic (no oxygen). Therefore, combinations of MD3 and six secondary antibiotics were evaluated under both aerobic and anaerobic conditions for a representative organism, Pseudomonas aeruginosa.
as §1
MD3 and secondary antibiotics were tested at 4× their minimum inhibitory concentration (MIC) alone. […] MD3 and antibiotics were tested across a 7-point range of 2-fold concentration, as detailed in Table 3.
as §2, §5
For experiments in which P. aeruginosa was grown under anaerobic conditions, 90 mM KNO3 was added to the CAMHB media, and the checkerboard assay plates were incubated in an anaerobic box containing anaerobic sachets.
The FICI was calculated for each well along the growth/no-growth border of the checkerboard assay plate. If the FICI of any well was greater than 4, antagonism was reported; otherwise, the lowest FICI value was reported. FICI values of ≤0.5 are considered synergistic, values of 0.51 to 1 are additive, and values of greater than 1 to 4 are indifferent. The rationale for this method of analysis is that, if any ratio of MD3:antibiotic is synergistic, then that combination has the potential for synergy, even if other ratios are not synergistic.

[6] = system: Candida auris (Strain N0220); test: Checkerboard assay, MD3 combined with a secondary antifungal; format: cell-based; conditions: for Interaction (at 24 hours) / Lowest FICI (at 24 hours) / Interaction (at 48 hours) / Lowest FICI (at 48 hours): antifungal combined with MD3
Source text: (§6) To quantify the combined effects of MD3 and a secondary antifungal, a checkerboard assay was used as described above in Example 1. The antibiotics tested in this study included voriconazole, a triazole antifungal that inhibits the growth of the fungi causing the infection; itraconazole, an azole antifungal that inhibits the growth of fungi; and amphotericin B, a polyene antifungal that binds to ergosterol in fungal cell membranes, developing holes in the membrane and allowing cell components to leak out, causing cell death.
(§7) The fungal species used in this study included Aspergillus fumigatus (strain N0219) and Candida auris (Strain N0220). The checkerboard method was performed as described above in Example 1. The effects of the antifungal combinations were classified according to the fractional inhibitory concentration index (FICI) as described above in Example 1 at time points of 24 hours and 48 hours.

[7] = system: S. aureus strain N0040; test: Checkerboard assay, MD3 combined with a second antibiotic; format: cell-based, Staphylococcus aureus; conditions: aerobic
Description: as §1, §2, §5
The FICI was calculated for each well along the growth/no-growth border of the checkerboard assay plate. If the FICI of any well was greater than 4, antagonism was reported; otherwise, the lowest FICI value was reported. FICI values of ≤0.5 are considered synergistic, values of 0.51 to 1 are additive, and values of greater than 1 to 4 are indifferent. The rationale for this method of analysis is that, if any ratio of MD3:antibiotic is synergistic, then that combination has the potential for synergy, even if other ratios are not synergistic. […] If an experiment was repeated twice and the same classification observed (e.g., synergy observed in both replicates), then the average FICI was reported for that drug combination. If the results for two duplicates are discordant in their classification, a third experiment must be conducted and the average FICI from the triplicate experiments was used for final classification.

[8] = system: Aspergillus fumigatus (strain N0219); test: Checkerboard assay, MD3 combined with a secondary antifungal; format: cell-based
Source text: as §6, §7

[9] = system: planktonic P. aeruginosa; test: Minimum inhibitory concentration (MIC) of an agent alone; format: cell-based; conditions: Pseudomonas aeruginosa, strain PAK grown aerobically
Description: MD3 and secondary antibiotics were tested at 4× their minimum inhibitory concentration (MIC) alone. For example, the MICMD3 against P. aeruginosa strain PAK grown aerobically is 31.25 μg/ml, and the MICTOB is 3.125 μg/ml; thus, the highest concentrations tested in the checkerboard assay were 125 µg/ml MD3 and 12.5 μg/ml TOB. MD3 and antibiotics were tested across a 7-point range of 2-fold concentration, as detailed in Table 3.
as §5, with “Finally, 100 μl of 5×10^5 CFU/ml bacterial culture was added to each well.” left out

[10] = system: P. aeruginosa biofilms; test: Eradication of P. aeruginosa biofilms (MBEC assay); format: cell-based, Pseudomonas aeruginosa; conditions: aerobic and anaerobic biofilms; treated 18-24 hours
Description: The minimum biofilm eradication concentration (MBEC) of MD3 was determined for P. aeruginosa biofilms grown under aerobic and anaerobic conditions. The MBEC is defined as a 3-log reduction in biofilm-associated CFUs. Biofilms were generated using the MBEC Assay™ growth device (Innovotech; Edmonton, Alberta, Canada) in cation-adjusted Mueller-Hinton broth (CAMHB) at 37° C. for 24 hours and treated with MD3 or tobramycin for an additional 18-24 hours. Remaining biofilms were disrupted by sonication and plated to determine the surviving CFU/mL following a single treatment.

[11] = 24 hours, antifungal combined with MD3
[12] = 48 hours, antifungal combined with MD3

## NCC[C@H](O)C(=O)N[C@@H]1C[C@H](N)[C@@H](O[C@H]2O[C@H](CN)[C@@H](O)[C@H](O)[C@H]2O)[C@H](O)[C@H]1O[C@H]1O[C@H](CO)[C@@H](O)[C@H](N)[C@H]1O [AMK, Amikacin]
[1]
  Lowest FICI, rep 1: 0.56
[2]
  Lowest FICI, rep 1: 0.56
[3]
  Lowest FICI, rep 1: 0.75
[4]
  Lowest FICI, rep 1: 0.56
  Lowest FICI, rep 2: 0.56

## C[C@H]1[C@H](NC(=O)/C(=N\OC(C)(C)C(=O)O)c2csc(N)n2)C(=O)N1S(=O)(=O)O [ATM, Aztreonam]
[5]; Aerobic
  Lowest FICI, rep 1: 0.31
  Lowest FICI, rep 2: 0.31
[5]; Anaerobic
  Lowest FICI, rep 1: 0.56

## C[C@@H]1[C@H](O)[C@@H](C)/C=C/C=C/C=C/C=C/C=C/C=C/C=C/[C@H](O[C@@H]2O[C@H](C)[C@@H](O)[C@H](N)[C@@H]2O)C[C@@H]2O[C@](O)(C[C@@H](O)C[C@@H](O)[C@H](O)CC[C@@H](O)C[C@@H](O)CC(=O)O[C@H]1C)C[C@H](O)[C@H]2C(=O)O [Amphotericin B, amphotericin B]
[6]
  Interaction (at 24 hours): Additive
  Lowest FICI (at 24 hours): 0.625
  Interaction (at 48 hours): Additive
  Lowest FICI (at 48 hours): 0.5625

## CC(C)(O/N=C(\C(=O)N[C@@H]1C(=O)N2C(C(=O)[O-])=C(C[n+]3ccccc3)CS[C@H]12)c1csc(N)n1)C(=O)O [CAZ, ceftazidime]
[5]; Aerobic
  Lowest FICI, rep 1: 0.38
  Lowest FICI, rep 2: 0.31
[5]; Anaerobic
  Lowest FICI, rep 1: 0.50

## O=C(O)c1cn(C2CC2)c2cc(N3CCNCC3)c(F)cc2c1=O [CIP, Ciprofloxacin]
[5]; Aerobic
  Lowest FICI, rep 1: 0.56
  Lowest FICI, rep 2: 0.31
  Lowest FICI, rep 3: 0.56
[5]; Anaerobic
  Lowest FICI, rep 1: 0.56

## CC[C@H]1OC(=O)[C@H](C)[C@@H](O[C@H]2C[C@@](C)(OC)[C@@H](O)[C@H](C)O2)[C@H](C)[C@@H](O[C@@H]2O[C@H](C)C[C@H](N(C)C)[C@H]2O)[C@](C)(OC)C[C@@H](C)C(=O)[C@H](C)[C@@H](O)[C@]1(C)O [CLR, Clarithromycin]
[3]
  Lowest FICI, rep 1: 1.00
[4]
  Lowest FICI, rep 1: 0.56
  Lowest FICI, rep 2: 1.00

## O=C([O-])CC(O)(CC(=O)[O-])C(=O)[O-].[Ga+3] [GaCi, Gallium citrate]
[5]; Aerobic
  Lowest FICI, rep 1: 0.38
  Lowest FICI, rep 2: 0.38
  Lowest FICI, rep 3: 0.25
[1]
  Lowest FICI, rep 1: 0.56
[2]
  Lowest FICI, rep 1: 0.56
[7]
  Interaction of MD3 with the antibiotic (FICI classification): synergistic (FICI values of ≤0.5 are considered synergistic)
[7]; combined with MD3
  Lowest FICI, rep 1: 0.25
  Lowest FICI, rep 2: 0.19

## CCC(C)n1ncn(-c2ccc(N3CCN(c4ccc(OCC5COC(Cn6cncn6)(c6ccc(Cl)cc6Cl)O5)cc4)CC3)cc2)c1=O (stereo not shown) [Itraconazole, itraconazole]
[8]; [11]
  Lowest FICI (at 24 hours): 0.625
[8]; [12]
  Lowest FICI (at 48 hours): 0.5625

## C[C@@H](O)[C@H]1C(=O)N2C(C(=O)O)=C(S[C@@H]3CN[C@H](C(=O)N(C)C)C3)[C@H](C)[C@H]12 [MER, Meropenem]
[5]; Aerobic
  Lowest FICI, rep 1: 0.53
  Lowest FICI, rep 2: 0.56
[5]; Anaerobic
  Lowest FICI, rep 1: 0.56

## NC[C@H]1O[C@H](O[C@H]2[C@H](O)[C@@H](O[C@H]3O[C@H](CO)[C@@H](O)[C@H](N)[C@H]3O)[C@H](N)C[C@@H]2N)[C@H](N)C[C@@H]1O [TOB, Tobramycin]
[5]; Aerobic
  Lowest FICI, rep 1: 0.56
  Lowest FICI, rep 2: 0.63
  Lowest FICI, rep 3: 0.56
[5]; Anaerobic
  Lowest FICI, rep 1: 0.56
[7]
  Interaction of MD3 with the antibiotic (FICI classification): indifferent (values of greater than 1 to 4 are indifferent)
[7]; combined with MD3
  Lowest FICI, rep 1: 1.03
[9]
  MIC: 3.12 µg/mL
[10]
  Biofilm eradication (MBEC, 3-log reduction in biofilm-associated CFUs): only effective against aerobic biofilms

## C[C@@H](c1ncncc1F)[C@](O)(Cn1cncn1)c1ccc(F)cc1F [Voriconazole, voriconazole]
[8]; [11]
  Interaction (at 24 hours): Additive
  Lowest FICI (at 24 hours): 0.625
[8]; [12]
  Interaction (at 48 hours): Additive
  Lowest FICI (at 48 hours): 0.313
[8]; time point not separated
  Interaction of MD3 with the antifungal (summary): at least additive
[6]
  Interaction (at 24 hours): Additive
  Lowest FICI (at 24 hours): 0.375
  Interaction (at 48 hours): Additive
  Lowest FICI (at 48 hours): 0.5625
[6]; time point not separated
  Interaction of MD3 with the antifungal (summary): at least additive

## Colistin [CST]
[5]; Aerobic
  Lowest FICI, rep 1: 0.56
  Lowest FICI, rep 2: 0.38
[5]; Anaerobic
  Lowest FICI, rep 1: 0.56

## Gentamicin
[5]; Aerobic
  Lowest FICI, rep 1: 1.06
[5]; aerobic conditions
  Interaction of MD3 with the antibiotic (FICI classification): indifferent (values of greater than 1 to 4 are indifferent)
